Test results published in ChEMBL document CHEMBL2007661, “Compounds: GSK PKIS; Assays: UNC Frye lab” (2012).
Values joined by “and” are separate entries in the source; they are usually repeats but may differ in a detail not shown here. Identical values can stand only once.

What was measured:
[1] = molecular target: T1, Inhibitor of nuclear factor kappa-B kinase subunit alpha (Homo sapiens) (UniProt O15111); settings: at 1 µM
T1 sequence (whole entry): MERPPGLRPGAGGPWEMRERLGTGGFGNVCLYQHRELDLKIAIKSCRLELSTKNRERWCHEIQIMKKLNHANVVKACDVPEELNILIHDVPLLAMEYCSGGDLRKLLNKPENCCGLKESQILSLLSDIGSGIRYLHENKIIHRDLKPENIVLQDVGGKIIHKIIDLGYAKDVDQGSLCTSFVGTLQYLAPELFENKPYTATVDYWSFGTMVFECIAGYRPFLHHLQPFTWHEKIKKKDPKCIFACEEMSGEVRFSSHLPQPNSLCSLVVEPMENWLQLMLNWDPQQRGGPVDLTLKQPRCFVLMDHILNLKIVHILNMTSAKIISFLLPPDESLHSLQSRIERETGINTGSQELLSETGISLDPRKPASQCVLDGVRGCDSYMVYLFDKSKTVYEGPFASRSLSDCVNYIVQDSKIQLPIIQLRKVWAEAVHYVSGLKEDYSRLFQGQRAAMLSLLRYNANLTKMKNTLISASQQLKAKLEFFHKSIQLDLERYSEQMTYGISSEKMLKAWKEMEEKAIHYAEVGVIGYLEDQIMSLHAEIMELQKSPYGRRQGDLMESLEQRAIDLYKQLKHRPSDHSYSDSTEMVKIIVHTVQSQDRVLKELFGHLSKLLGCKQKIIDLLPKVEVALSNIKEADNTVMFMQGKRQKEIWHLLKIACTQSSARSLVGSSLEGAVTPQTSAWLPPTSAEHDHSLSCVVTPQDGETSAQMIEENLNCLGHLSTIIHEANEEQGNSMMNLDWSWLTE

[2] = molecular target: T2, Inhibitor of nuclear factor kappa-B kinase subunit beta (Homo sapiens) (UniProt O14920); settings: at 1 µM
T2 sequence (whole entry): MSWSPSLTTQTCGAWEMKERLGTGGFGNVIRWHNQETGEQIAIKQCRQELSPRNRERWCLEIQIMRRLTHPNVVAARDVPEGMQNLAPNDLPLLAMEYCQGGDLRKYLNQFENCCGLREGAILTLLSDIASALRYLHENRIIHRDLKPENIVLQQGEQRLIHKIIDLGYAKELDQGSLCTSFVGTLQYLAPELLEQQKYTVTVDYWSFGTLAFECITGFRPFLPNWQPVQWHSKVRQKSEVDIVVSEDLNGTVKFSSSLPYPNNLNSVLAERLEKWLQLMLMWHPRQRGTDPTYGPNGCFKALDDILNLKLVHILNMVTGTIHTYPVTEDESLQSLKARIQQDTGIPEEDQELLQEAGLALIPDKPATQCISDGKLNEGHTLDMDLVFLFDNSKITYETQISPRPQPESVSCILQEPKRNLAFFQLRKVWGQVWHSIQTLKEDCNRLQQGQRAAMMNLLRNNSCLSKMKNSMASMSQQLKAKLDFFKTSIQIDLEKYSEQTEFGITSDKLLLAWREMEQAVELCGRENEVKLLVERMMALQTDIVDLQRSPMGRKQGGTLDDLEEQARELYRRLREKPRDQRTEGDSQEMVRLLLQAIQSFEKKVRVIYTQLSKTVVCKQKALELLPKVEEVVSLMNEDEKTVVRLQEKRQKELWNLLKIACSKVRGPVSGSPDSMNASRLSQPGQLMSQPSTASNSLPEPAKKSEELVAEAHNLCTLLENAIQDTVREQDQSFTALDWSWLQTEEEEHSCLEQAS

Row | SMILES | inhibition [1] | inhibition [2]
1 | Fc1cccc(COc2ccc(Nc3ncncc3C#Cc3ccccc3)cc2Cl)c1 | 2% and 5% | -6% and -3%
2 | CCn1c(-c2nonc2N)nc2cnc(Oc3cccc(NC(=O)c4ccc(N(C)C)cc4)c3)cc21 | 5% and 9% | -1% and -2%
3 | NS(=O)(=O)c1ccc(N/N=C2\C(=O)Nc3cccc(CCc4ccncc4)c32)cc1 | 5% | -7%
4 | COc1ccc2[nH]c3c4[nH]c5ccc(OC)cc5c4c4c(c3c2c1)C(=O)NC4=O | 12% and 13% | -1% and -5%
5 | NC(=O)c1ccc(-c2nc(-c3ccccn3)c(-c3ccc4c(c3)OCO4)[nH]2)cc1 | -3% | 5% and 2%
6 | CCn1c(-c2nonc2N)nc2ccncc21 | 4% and 1% | -4% and -5%
7 | CN(C)CCCNc1nccc(-c2c(-c3ccc(F)cc3)nn3cc(C(F)(F)F)ccc23)n1 | 2% and 3% | 2% and 0%
8 | COC(=O)Nc1nc2cc(Oc3ccc(NC(=O)Nc4cccc(C(=O)O)c4)cc3)ccc2[nH]1 | 2% and 4% | -3% and 3%
9 | COc1cc(C)c(N(C)C(=O)CN(C)C)cc1Nc1nc(Nc2cccc(F)c2C(N)=O)c2cc[nH]c2n1 | 4% and 3% | -3% and -6%
10 | Cc1ccc2c(-c3ccnc(Nc4ccccc4)n3)c(-c3ccc(F)cc3)nn2n1 | 2% and 1% | -1% and -4%

Second part, the molecule after the results:

Row | inhibition [1] | inhibition [2] | SMILES
11 | -9% and 5% | -2% and -1% | CS(=O)(=O)CCNCc1nc(-c2ccc3ncnc(Nc4ccc(OCc5cccc(C(F)(F)F)c5)cc4)c3c2)cs1
12 | -3% and 1% | 4% and 0% | COc1cc(/C=N/Nc2ncnc3c2cnn3C(C)C)ccc1O
13 | 3% | -4% | CN1CCC(C(=O)Nc2n[nH]c3nnc(-c4ccccc4)cc23)CC1
14 | -8% and -5% | 3% and 2% | Cc1cc(O)cc(C)c1/C=C/c1cncc(C(=O)N(C)C)c1
15 | 3% | -5% and -2% | O=C1NC(=O)C(c2ccc(Cl)cc2)=C1Nc1ccc(Cl)c(C(=O)O)c1
16 | 8% and 9% | 3% and 2% | O=C1NC(=O)C(N2CCc3ccccc32)=C1c1ccc(Cl)cc1
17 | 1% | 2% and -2% | CN(c1ccc(NC(=O)NCCN2CCOCC2)cc1)c1ccnc(Nc2ccc(CS(C)(=O)=O)cc2)n1
18 | -4% and -5% | 1% and 4% | O=C(NCC1CC1)c1ccc(-c2cccc(C(=O)NC3CC3)c2)cc1
19 | -1% and 0% | -4% | c1ccc(Nc2ncc(-c3ccccc3)o2)cc1
20 | 0% and 2% | 0% and 5% | COC(=O)Nc1nc2cc(Oc3cccc(NC(=O)Nc4cc(C(F)(F)F)ccc4F)c3)ccc2[nH]1
21 | 2% and 3% | -1% and 18% | COc1cc(C)c(NC(=O)CN(C)C)cc1Nc1nc(Nc2cccc(F)c2C(N)=O)c2cc[nH]c2n1
